Data taken from patent publication US20120052122A1, “Treatment Of Chronic Obstructive Pulmonary Disease With Phosphodiesterase-4 Inhibitor” (Nycomed GmbH, priority 2010, published 2012).
Where “and” joins values, the source holds several entries; their conditions need not be identical. Equal values may be shown once. Read-outs that look alike come from different tables or passages of the source.

Tests used:
[1] = in vivo
[2] = clinical; conditions: human, in vivo
[3] = Solubility in water; format: physicochemical; conditions: drug substance
[4] = test system: patients with COPD and chronic cough and sputum production
[5] = test system: unselected patients with severe COPD; conditions: Reference 14; cited from earlier work
[6] = test system: bronchial ciliary activity; assay: Bronchial ciliary activity in vitro
[7] = test system: hamster; assay: Two year hamster carcinogenicity studies; format: in vivo
Experimental: (§1) No other treatment-related neoplastic findings were observed. Overall, the tumor-free level in the animals was 4 mg/kg/day.

[8] = Blood-brain barrier penetration of radiolabeled roflumilast in rats
[9] = test system: experimental animals; assay: Infiltration of leukocytes into the lungs of experimental animals
[10] = test system: patients with COPD and chronic cough and sputum production; conditions: in vivo
[11] = Human spermatogenesis study; conditions: 500 mcg; 3-month treatment and 3-month off-treatment period
[12] = test system: B6C3F1 mice; assay: Two year carcinogenicity study in B6C3F1 mice; format: in vivo, mouse; conditions: gavage up to 12 mg/kg/day (males), 18 mg/kg/day (females), two years
Experimental: as §1

[13] = human, in vivo
[14] = test system: patients with COPD; assay: Sputum cell counts in patients with COPD
[15] = test system: CYP 2B6; assay: CYP 2B6 induction in vitro
[16] = Excretion into milk of lactating rats; format: in vivo, rat; conditions: roflumilast and/or its metabolites
Text: Excretion of roflumilast and/or metabolites into human milk is probable. Roflumilast should not be used during breast-feeding.

O=C(Nc1c(Cl)cncc1Cl)c1ccc(OC(F)F)c(OCC2CC2)c1 [Roflumilast, N-(3,5-dichloropyridin-4-yl)-3-cyclopropylmethoxy-4-difluoromethoxy-benzamide]
Delay of tmax by food intake ([1]; human): one | Plasma AUC ([1]; human): 28 ugxh/L | Radioactivity recovered in the urine ([1]; human): about 70% | Reduction of Cmax by food intake ([1]; human): approximately 40% | Time of maximum plasma concentrations after dosing, range ([1]; human): 0.5 to 2 h | Time to steady state plasma concentrations ([1]; human): approximately 4 days | Effect of food intake on total PDE4 inhibitory activity [1]: does not affect | Time of maximum plasma concentrations after dosing [1]: approximately one | Cmax [2]: 8.8 ng/mL | clearance ([2]; iv): ~160 mL/min | half-life ([2]; po): ~17 h | bioavailability ([2]; po, 500 ug): ~80% | Solubility in water [3]: poorly soluble | Change in C-reactive protein from baseline to last postrandomisation visit ([4]; M2-124): 1.0; n = 691 mg/L | Median time to first exacerbation (moderate or severe) [IQR] ([4]; M2-124): 85.0 (29.5-185.5) days | Median time to second exacerbation (moderate or severe) [IQR] ([4]; M2-124): 172.0 days | Number of patients needed to treat to prevent one moderate or severe exacerbation per year ([4]; M2-124): 5.3 and 5.29 | Time to mortality (mean, SD) ([4]; M2-124): 213.8 days | Exacerbations moderate or severe, mean rate [95% CI] ([4]; M2-124, 52 weeks): 1.08 (0.96-1.21); per patient, per year | Exacerbations moderate, mean rate [95% CI] ([4]; M2-124, 52 weeks): 0.94 (0.83-1.06); per patient, per year | Exacerbations severe, mean rate [95% CI] ([4]; M2-124, 52 weeks): 0.11 (0.07-0.15); per patient, per year | Exacerbations treated with systemic corticosteroids, antibiotics, or both, mean rate [95% CI] ([4]; M2-124, 52 weeks): 1.10 (0.98-1.23); per patient, per year | Change in postbronchodillator FEV1/FVC ([4]; M2-124, 52 weeks, mean): 0.488% | Change in prebronchodillator FEV1/FVC ([4]; M2-124, 52 weeks, mean): 0.314% | Change in postbronchodillator FEF25-75 ([4]; M2-124, 52 weeks, mean (SE)): 22 (6); mL/s | Change in postbronchodillator FEV1 ([4]; M2-124, 52 weeks, mean (SE)): 57 (9); mL | Change in postbronchodillator FVC ([4]; M2-124, 52 weeks, mean (SE)): 76 (15); mL | Change in postbronchodillator PEF ([4]; M2-124, 52 weeks, mean (SE)): 8.08 (1.50); L/min | Change in prebronchodillator FEF25-75 ([4]; M2-124, 52 weeks, mean (SE)): 19 (5); mL/s | Change in prebronchodillator FEV1 ([4]; M2-124, 52 weeks, mean (SE)): 46 (8); mL | Change in prebronchodillator FVC ([4]; M2-124, 52 weeks, mean (SE)): 68 (15); mL | Change in prebronchodillator PEF ([4]; M2-124, 52 weeks, mean (SE)): 6.65 (1.45); L/min | Adverse event Influenza, difference ([4]; M2-124, Roflumilast vs Placebo): 1.13% (−0.70 to 2.95) | Change in C-reactive protein from baseline to last postrandomisation visit, difference ([4]; M2-124, Roflumilast vs Placebo): Difference 1.0 (0.8 mg/L | Change in postbronchodillator FEF25-75, difference ([4]; M2-124, Roflumilast vs Placebo): Difference 11 (−5 mL/s | Change in postbronchodillator FEV1, difference ([4]; M2-124, Roflumilast vs Placebo): Difference 49 (26 mL | Change in postbronchodillator FEV1/FVC, difference ([4]; M2-124, Roflumilast vs Placebo): Difference 0.202 (−0.343% | Change in postbronchodillator FVC, difference ([4]; M2-124, Roflumilast vs Placebo): Difference 101 (63 mL | Change in postbronchodillator PEF, difference ([4]; M2-124, Roflumilast vs Placebo): Difference 4.21 L/min | Change in prebronchodillator FEF25-75, difference ([4]; M2-124, Roflumilast vs Placebo): Difference 17 (3 to mL/s | Change in prebronchodillator FEV1, difference ([4]; M2-124, Roflumilast vs Placebo): Difference 39 (18 mL | Change in prebronchodillator FEV1/FVC, difference ([4]; M2-124, Roflumilast vs Placebo): Difference 0.312 (−0.262% | Change in prebronchodillator FVC, difference ([4]; M2-124, Roflumilast vs Placebo): Difference 89 (51 mL | EQ-5D total score, difference ([4]; M2-124, Roflumilast vs Placebo): Difference −0.0047 | TDI focal score, difference ([4]; M2-124, Roflumilast vs Placebo): Difference 0.2 | Change in prebronchodillator FVC, difference ([4]; M2-124, Roflumilast vs Placebo, listed as roflumilast): 89 mL | EQ-5D total score ([4]; M2-124, mean): 0.0049 | TDI focal score ([4]; M2-124, mean (SE)): 0.7 (0.1); | Adverse event Influenza, patients ([4]; M2-124, n = 769): 27 (4%) number (%) | Adverse event Upper respiratory tract infection, patients ([4]; M2-124, n = 769): 16 (2%) number (%) | Adverse event Upper respiratory tract infection, difference ([4]; human, in vivo, 52 weeks): −0.70% (−2.38 to 0.98) | Frequency of exacerbations [5]: did not significantly reduce | Bronchial ciliary activity [6]: stimulated | Neoplastic findings ([7]; hamster, up to 16 mg/kg/day, two year): nasal neoplasms were caused by a drug metabolite, which is absent in humans | Tumor-free level in the animals ([7]; overall): 4 mg/kg/day | Penetration across the blood-brain barrier [8]: low penetration | Infiltration of leukocytes, in particular neutrophils, into the lungs [9]: inhibited | Adverse event Upper respiratory tract infection, patients ([10]; human, 52 weeks): 33 (4%) number (%) | Occurrence of rhythm disturbances vs placebo [10]: no difference | Semen parameters or reproductive hormones [11]: no effects | Tumors [12]: No compound-related tumors | Absorption or pharmacokinetics on co-administration with an antacid [13]: did not alter | Increase in the total PDE4 inhibition with strong CYP 1A2 inhibitors, such as fluvoxamine [13]: 20-60% | Interactions with inhaled salbutamol, formoterol, budesonide, oral theophylline, montelukast, digoxin, warfarin, sildenafil, midazolam and an oral contraceptive [13]: No clinically relevant interactions | Reduction in total PDE4 inhibitory activity with rifampicin [13]: about 60% | Total PDE4 inhibitory activity with CYP 3A4 inhibitors (erythromycin and ketoconazole) [13]: did not result in increases | Total PDE4 inhibitory activity with fluvoxamine, enoxacin and cimetidine [13]: resulted in increases | Sputum neutrophils [14]: reduced | Induction of CYP 2B6 [15]: weak induction | Excretion into milk [16]: excreted into the milk
